Test results as given in article PMC3422278 (2012).

Experiments:
[1] = test system: Pu27 (DNA, G4) TGGGGAGGGTGGGGAGGGTGGGGAAGG; assay: PCR stop assay (Taq polymerase); settings: 1x PCR buffer, extension 72 °C, indirect
[2] = test system: Pu24I (DNA, G4, inosine at 10 (G-to-I)) TGAGGGTGGGGAGGGTGGGGAAGG; assay: 1H NMR titration (imino proton shifts); settings: 150 mM KCl, 25 mM KH2PO4; 1 mM EDTA, pH 7.0, 298 K, 90% H2O/10% D2O; 1.0 mM DNA

C[C@@H]1C(=O)O[C@H]2[C@H]1CC[C@@]1(C)Cc3sc(NC(=O)Nc4ccc(Oc5ccccc5)cc4)nc3[C@@H](C)[C@H]21
binding ([1]; 10 µM oligomers, complementary primer, effect at 125 µM, 250 µM): weak
binding [2]: yes

COc1cc(NC(=O)Nc2nc3c(s2)C[C@]2(C)CC[C@@H]4[C@H](OC(=O)[C@H]4C)[C@H]2[C@@H]3C)cc(OC)c1
binding ([1]; inhibition only at higher concentration (500 µM)): weak
